Data set [1] has as its system CCRF S-180. As to the kind of experiment: Antitumor activity against mouse S180 cells allografted in mouse assessed as tumor growth inhibition at 50 mg/kg, ip qd for 8 days. The data set is classed as functional, organism-based. Also on record: dose 50 mg/kg.
Data set [2] has as its system CCRF S-180. As to the kind of experiment: Antitumor activity against mouse S180 cells allografted in mouse assessed as tumor growth inhibition at 1 to 5 mg/kg, ip qd for 8 days. The data set is classed as functional, organism-based.
Data set [3] relates to CCRF S-180. As to the kind of experiment: Antitumor activity against mouse S180 cells allografted in mouse assessed as tumor growth inhibition at 5 mg/kg, ip qd for 8 days. Details: dose 5 mg/kg. The data set is classed as functional, organism-based.
Data set [4] in a line: Stability of the compound at pH 7.4. Particulars: buffer. The data set is classed as physicochemical.
Data set [5] relates to CCRF S-180. As to the kind of experiment: Antitumor activity against mouse S180 cells allografted in mouse assessed as tumor growth inhibition at 100 mg/kg, ip qd for 8 days. The data set is classed as functional, organism-based. Details: dose 100 mg/kg.

SMILES strings stand for the structures. Calls of active or inactive are those of the source. No cut-off for these calls is given here.

In the case of `Nc1nc(=O)c(F)cn1[C@@H]1O[C@H](CO)[C@@H](O)[C@H]1O`, in the data set with CCRF S-180 [1], the TGI entry is “inactive”.
For `Nc1nc(=O)n([C@@H]2O[C@H](CO)[C@@H](O)[C@H]2O)cc1F`, the TGI entry with CCRF S-180 [2] is “Active”.
For the compound `O=c1[nH]c(=O)n([C@@H]2O[C@H](CO)[C@@H](O)[C@H]2O)cc1F`, the TGI result in the data set on CCRF S-180 [3] is “Active”.
Turning to `Nc1nc(N)[n+]([C@@H]2O[C@H](CO)[C@@H](O)[C@H]2O)cc1F`, the TGI result in the data set on CCRF S-180 [1] was “inactive”.
`O=c1[nH]c(=O)n([C@@H]2O[C@H](CI)[C@@H](O)[C@H]2O)cc1F`: in the data set on CCRF S-180 [1], the TGI entry is “inactive”.
For the compound `O=c1nc2n(cc1F)[C@@H]1O[C@H](CO)[C@@H](O)[C@@H]1N2`, the TGI entry in the data set with CCRF S-180 [1] was “inactive”. Further, in data set [4], the Stability entry is “Stable”.
Regarding `Nc1nc2[n+](cc1F)[C@@H]1O[C@H](CO)[C@@H](O)[C@@H]1N2.[Cl-]`, the TGI entry in the data set with CCRF S-180 [5] was “inactive”. Also, in data set [4], the Stability entry is “Stable”.

The values are drawn from ChEMBL document CHEMBL3244083, “Fluorinated Pyrimidine nucleosides. 1. Synthesis of a nitrogen analogue of the antitumor agent 2,2'-anhydro-1-beta-D-arabinofuranosyl-5-fluorocytosine hydrochloride” (J Med Chem, 1977).
